Measured values: PubChem BioAssay (NCI)
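Grown in 96-well plates, cells were treated for 48 hours with each compound at five concentrations. Insufficient inhibition: endpoint recorded as highest concentration tested. TGI is the concentration that stops growth completely.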

Columns and labels:
Assay in all cases: NCI anticancer screen, dose series, 48 h
[1] = tested on: DU-145 prostate
[2] = tested on: SF-268 CNS
[3] = tested on: HS 578T breast
[4] = tested on: OVCAR-3 ovarian
[5] = tested on: SK-MEL-2 melanoma
[6] = tested on: SF-295 CNS
[7] = tested on: EKVX NSCLC
[8] = tested on: OVCAR-4 ovarian
[9] = tested on: KM12 colon
[10] = tested on: BT-549 breast
[11] = tested on: COLO 205 colon
[12] = tested on: SK-MEL-28 melanoma
[13] = tested on: U251 CNS
[14] = tested on: NCI/ADR-RES ovarian
[15] = tested on: M14 melanoma
[16] = tested on: HL-60(TB) leukemia
[17] = tested on: HCT-15 colon
[18] = tested on: MCF7 breast
[19] = tested on: OVCAR-8 ovarian
[20] = tested on: CAKI-1 renal
[21] = tested on: MDA-MB-231 breast
[22] = tested on: HOP-62 NSCLC
[23] = tested on: ACHN renal
[24] = tested on: SN12C renal
[25] = tested on: MALME-3M melanoma
[26] = tested on: TK-10 renal
[27] = tested on: HCT-116 colon
[28] = tested on: SNB-75 CNS
[29] = tested on: HOP-92 NSCLC
[30] = tested on: PC-3 prostate
[31] = tested on: UO-31 renal
[32] = tested on: NCI-H460 lung
[33] = tested on: MDA-N
[34] = tested on: MOLT-4 leukemia
[35] = tested on: UACC-257 melanoma
[36] = tested on: T-47D breast
[37] = tested on: A549 NSCLC
[38] = tested on: 786-0 renal
[39] = tested on: RPMI-8226 leukemia
[40] = tested on: RXF 393 renal
[41] = tested on: UACC-62 melanoma
[42] = tested on: CCRF-CEM leukemia
[43] = tested on: LOX IMVI melanoma
[44] = tested on: HCC-2998 colon
[45] = tested on: NCI-H522 lung
[46] = tested on: SF-539 CNS
[47] = tested on: MDA-MB-435
[48] = tested on: OVCAR-5 ovarian
[49] = tested on: A498 renal
[50] = tested on: K-562 leukemia
[51] = tested on: HT29 colon
[52] = tested on: SK-OV-3 ovarian
[53] = tested on: SK-MEL-5 melanoma
[54] = tested on: SR leukemia
[55] = tested on: NCI-H23 lung
[56] = tested on: SW-620 colon
[57] = tested on: IGROV1 ovarian
[58] = tested on: NCI-H226 lung
[59] = tested on: SNB-19 CNS

Cc1coc2c1C(OC(=O)C(C)C)C1(C)C(C)CCC(O)C1C2=O (centres undefined)
TGI [1]: > 100 µM
TGI [2]: > 100 µM
TGI [3]: > 100 µM
TGI [4]: > 100 µM
TGI [5]: > 100 µM
TGI [6]: > 100 µM
TGI [7]: > 100 µM
TGI [8]: > 100 µM
TGI [9]: > 100 µM
TGI [10]: > 95 µM
TGI [11]: > 100 µM
TGI [12]: > 100 µM
TGI [13]: > 100 µM
TGI [14]: > 100 µM
TGI [15]: > 100 µM
TGI [16]: > 100 µM
TGI [17]: > 100 µM
TGI [18]: > 100 µM
TGI [19]: > 100 µM
TGI [20]: > 100 µM
TGI [21]: > 100 µM
TGI [22]: > 100 µM
TGI [23]: > 100 µM
TGI [24]: > 100 µM
TGI [25]: > 100 µM
TGI [26]: > 100 µM
TGI [27]: > 100 µM
TGI [28]: > 100 µM
TGI [29]: > 100 µM
TGI [30]: > 100 µM
TGI [31]: > 100 µM
TGI [32]: > 100 µM
TGI [33]: > 100 µM
TGI [34]: > 100 µM
TGI [35]: > 100 µM
TGI [36]: > 100 µM
TGI [37]: > 100 µM
TGI [38]: > 100 µM
TGI [39]: > 100 µM
TGI [40]: > 100 µM
TGI [41]: > 100 µM
TGI [42]: > 100 µM
TGI [43]: > 100 µM
TGI [44]: > 100 µM
TGI [45]: > 100 µM
TGI [46]: > 100 µM
TGI [47]: > 100 µM
TGI [48]: > 100 µM
TGI [49]: > 100 µM
TGI [50]: > 100 µM
TGI [51]: > 100 µM
TGI [52]: > 100 µM
TGI [53]: > 100 µM
TGI [54]: > 100 µM
TGI [55]: > 100 µM
TGI [56]: > 100 µM
TGI [57]: > 100 µM
TGI [58]: > 100 µM

CCOC(=O)[C@@H]1ON2OC(OC3CCCC3(c3ccccc3)c3ccccc3)C(OC(C)=O)[C@H]3OC(=O)[C@@H]1C32 (some centres undefined)
TGI [1]: > 100 µM
TGI [2]: > 100 µM
TGI [3]: > 100 µM
TGI [4]: > 100 µM
TGI [5]: > 100 µM
TGI [6]: > 100 µM
TGI [7]: > 100 µM
TGI [9]: > 100 µM
TGI [10]: > 100 µM
TGI [11]: > 100 µM
TGI [12]: > 100 µM
TGI [13]: > 100 µM
TGI [14]: > 100 µM
TGI [15]: > 100 µM
TGI [16]: > 100 µM
TGI [17]: > 100 µM
TGI [18]: 50.4 µM
TGI [19]: > 100 µM
TGI [20]: > 100 µM
TGI [21]: > 100 µM
TGI [22]: > 100 µM
TGI [23]: 73.2 µM
TGI [24]: > 100 µM
TGI [26]: > 100 µM
TGI [27]: > 100 µM
TGI [28]: > 100 µM
TGI [29]: > 100 µM
TGI [30]: > 100 µM
TGI [31]: > 100 µM
TGI [32]: > 100 µM
TGI [33]: > 100 µM
TGI [34]: > 100 µM
TGI [35]: > 100 µM
TGI [36]: > 100 µM
TGI [37]: > 100 µM
TGI [38]: > 100 µM
TGI [39]: > 100 µM
TGI [40]: 84.2 µM
TGI [41]: > 100 µM
TGI [42]: > 100 µM
TGI [43]: 60.3 µM
TGI [59]: > 100 µM
TGI [44]: > 100 µM
TGI [45]: 72.2 µM
TGI [46]: > 100 µM
TGI [47]: > 100 µM
TGI [49]: > 100 µM
TGI [50]: > 100 µM
TGI [51]: > 100 µM
TGI [52]: > 100 µM
TGI [53]: > 100 µM
TGI [54]: > 100 µM
TGI [55]: > 100 µM
TGI [56]: > 100 µM
TGI [57]: > 100 µM
TGI [58]: > 100 µM
